According to ChEMBL document CHEMBL5465560, “Selectivity Literature for EUbOPEN Chemogenomic Library” (2024):

What was measured:
[1] = biological target: T1, Serine/threonine-protein kinase TAO2 (Homo sapiens) (UniProt Q9UL54); assay: Selectivity interaction (Kinase panel (KiNativ target engagement assay in Jurkat cells)) EUB0001635a TAOK2; assay type: cell-based; details: Selectivity number of off-targets 0.0, Selectivity number of targets 233.0, Source Knowledge https://www.sciencedirect.com/science/article/pii/S2451945619300674?via%3Dihub, at 1 µM
T1 sequence (whole entry): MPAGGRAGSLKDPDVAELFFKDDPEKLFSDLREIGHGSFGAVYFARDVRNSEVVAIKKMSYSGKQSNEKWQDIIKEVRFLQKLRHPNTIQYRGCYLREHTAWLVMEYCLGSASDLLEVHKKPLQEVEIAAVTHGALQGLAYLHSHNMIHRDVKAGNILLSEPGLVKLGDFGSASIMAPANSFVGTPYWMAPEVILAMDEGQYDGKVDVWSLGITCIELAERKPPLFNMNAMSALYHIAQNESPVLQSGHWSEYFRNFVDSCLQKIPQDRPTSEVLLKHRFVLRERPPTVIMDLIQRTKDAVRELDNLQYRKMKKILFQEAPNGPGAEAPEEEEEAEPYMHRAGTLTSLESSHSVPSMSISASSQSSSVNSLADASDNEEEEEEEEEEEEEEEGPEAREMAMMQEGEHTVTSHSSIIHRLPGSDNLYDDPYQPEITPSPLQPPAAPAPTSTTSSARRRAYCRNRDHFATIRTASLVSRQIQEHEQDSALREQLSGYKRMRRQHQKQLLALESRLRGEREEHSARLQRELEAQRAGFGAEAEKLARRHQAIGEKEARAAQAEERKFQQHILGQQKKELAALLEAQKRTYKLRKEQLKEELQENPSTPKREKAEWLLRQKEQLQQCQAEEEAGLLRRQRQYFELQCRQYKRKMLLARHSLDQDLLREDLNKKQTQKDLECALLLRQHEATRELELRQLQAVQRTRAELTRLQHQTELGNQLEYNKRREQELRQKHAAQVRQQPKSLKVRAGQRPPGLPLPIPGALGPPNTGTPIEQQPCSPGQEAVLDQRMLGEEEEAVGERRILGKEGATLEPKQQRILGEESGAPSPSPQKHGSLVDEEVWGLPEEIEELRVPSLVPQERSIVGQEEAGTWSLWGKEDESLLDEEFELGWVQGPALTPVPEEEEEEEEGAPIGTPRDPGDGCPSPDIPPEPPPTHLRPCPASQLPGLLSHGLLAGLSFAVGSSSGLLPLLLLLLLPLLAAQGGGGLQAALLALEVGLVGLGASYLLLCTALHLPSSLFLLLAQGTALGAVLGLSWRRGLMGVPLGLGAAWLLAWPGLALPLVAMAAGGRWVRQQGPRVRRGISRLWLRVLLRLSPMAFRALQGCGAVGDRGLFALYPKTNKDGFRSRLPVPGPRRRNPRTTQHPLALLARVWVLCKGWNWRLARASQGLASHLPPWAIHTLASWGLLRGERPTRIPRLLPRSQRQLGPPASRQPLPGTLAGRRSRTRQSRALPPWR

[2] = biological target: Serine/threonine-protein kinase 24 (Homo sapiens) (UniProt Q9Y6E0); assay: Selectivity interaction (Kinase panel (KiNativ target engagement assay in Jurkat cells)) EUB0001635a STK24; assay type: cell-based; details: Selectivity number of off-targets 0.0, Selectivity number of targets 233.0, Source Knowledge https://www.sciencedirect.com/science/article/pii/S2451945619300674?via%3Dihub, at 1 µM
[3] = biological target: Cyclin-dependent kinase 17 (Homo sapiens) (UniProt Q00537); assay: Selectivity interaction (Kinase panel (KiNativ target engagement assay in Jurkat cells)) EUB0001635a CDK17; assay type: cell-based; details: Selectivity number of off-targets 0.0, Selectivity number of targets 233.0, Source Knowledge https://www.sciencedirect.com/science/article/pii/S2451945619300674?via%3Dihub, at 1 µM
[4] = biological target: Serine/threonine-protein kinase MARK2 (Homo sapiens) (UniProt Q7KZI7); assay: Selectivity interaction (ActivX KiNativ screen (kinase selectivity in THP-1 cell lysates)) EUB0000639a MARK2; assay type: subcellular; details: lysate, at 0.01 µM
[5] = biological target: T2, Protein kinase C iota type (Homo sapiens) (UniProt P41743); assay: Selectivity interaction (ActivX KiNativ screen (kinase selectivity in THP-1 cell lysates)) EUB0000639a PRKCI; assay type: subcellular; details: lysate, at 0.2 µM
T2 sequence (whole entry): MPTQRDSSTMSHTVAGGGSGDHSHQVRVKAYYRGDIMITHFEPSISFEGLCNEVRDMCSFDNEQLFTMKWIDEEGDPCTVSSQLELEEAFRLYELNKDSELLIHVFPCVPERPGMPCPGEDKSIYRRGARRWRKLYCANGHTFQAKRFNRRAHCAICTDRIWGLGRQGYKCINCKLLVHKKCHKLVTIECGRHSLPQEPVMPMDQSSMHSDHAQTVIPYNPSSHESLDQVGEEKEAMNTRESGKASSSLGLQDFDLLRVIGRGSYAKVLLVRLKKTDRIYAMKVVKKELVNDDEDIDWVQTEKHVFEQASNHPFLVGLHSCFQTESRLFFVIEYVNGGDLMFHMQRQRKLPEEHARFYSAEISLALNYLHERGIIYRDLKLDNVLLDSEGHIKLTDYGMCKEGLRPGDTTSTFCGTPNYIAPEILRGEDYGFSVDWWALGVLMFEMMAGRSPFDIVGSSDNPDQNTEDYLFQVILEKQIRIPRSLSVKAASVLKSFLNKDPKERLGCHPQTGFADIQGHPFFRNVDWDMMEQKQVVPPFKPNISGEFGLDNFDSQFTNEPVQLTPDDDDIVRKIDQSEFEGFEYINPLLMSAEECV

[6] = biological target: Proto-oncogene tyrosine-protein kinase Src (Homo sapiens, UniProt P12931); assay: Selectivity interaction (Kinase panel (Invitrogen)) EUB0000639a SRC; details: at 200 nM
[7] = biological target: Tyrosine-protein kinase ABL2 (Homo sapiens, UniProt P42684); assay: Selectivity interaction (KinomeScan (DiscoverX)) EUB0000092b ABL2; details: at 10 µM
[8] = biological target: Mitogen-activated protein kinase 10 (Homo sapiens, UniProt P53779); assay: Selectivity interaction (KinomeScan (DiscoverX)) EUB0000618a MAPK10; details: at 10 µM
[9] = biological target: Mitogen-activated protein kinase 8 (Homo sapiens, UniProt P45983); assay: Selectivity interaction (LanthaScreen Eu Kinase Binding Assay) EUB0001632a MAPK8; details: at 10 µM
Mitogen-activated protein kinase 8, sequence (P45983 whole entry): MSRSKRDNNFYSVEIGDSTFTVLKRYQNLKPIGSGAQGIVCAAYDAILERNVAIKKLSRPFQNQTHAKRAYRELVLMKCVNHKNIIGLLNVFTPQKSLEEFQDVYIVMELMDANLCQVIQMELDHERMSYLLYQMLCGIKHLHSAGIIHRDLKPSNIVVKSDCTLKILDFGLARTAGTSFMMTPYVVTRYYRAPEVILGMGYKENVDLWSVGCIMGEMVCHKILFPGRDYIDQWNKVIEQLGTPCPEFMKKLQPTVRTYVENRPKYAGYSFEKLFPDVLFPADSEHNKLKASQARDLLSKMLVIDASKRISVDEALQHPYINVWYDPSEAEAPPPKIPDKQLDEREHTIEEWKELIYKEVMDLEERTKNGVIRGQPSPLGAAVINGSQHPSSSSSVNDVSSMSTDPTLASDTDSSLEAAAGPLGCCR

Mitogen-activated protein kinase 10, sequence (P53779 whole entry): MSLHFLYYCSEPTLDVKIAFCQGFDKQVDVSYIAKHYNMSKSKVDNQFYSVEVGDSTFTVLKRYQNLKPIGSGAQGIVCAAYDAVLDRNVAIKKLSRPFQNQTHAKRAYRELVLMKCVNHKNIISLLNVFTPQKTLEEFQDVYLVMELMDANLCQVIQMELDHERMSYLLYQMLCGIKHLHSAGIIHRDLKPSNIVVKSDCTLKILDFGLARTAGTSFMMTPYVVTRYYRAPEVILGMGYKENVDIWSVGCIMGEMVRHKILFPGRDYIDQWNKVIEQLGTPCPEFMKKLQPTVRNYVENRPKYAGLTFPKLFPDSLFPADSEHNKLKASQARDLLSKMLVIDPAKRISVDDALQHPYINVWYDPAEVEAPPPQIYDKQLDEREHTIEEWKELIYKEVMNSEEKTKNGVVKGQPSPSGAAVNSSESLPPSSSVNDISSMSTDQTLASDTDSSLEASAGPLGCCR
Serine/threonine-protein kinase MARK2 (Homo sapiens), sequence (Q7KZI7 whole entry): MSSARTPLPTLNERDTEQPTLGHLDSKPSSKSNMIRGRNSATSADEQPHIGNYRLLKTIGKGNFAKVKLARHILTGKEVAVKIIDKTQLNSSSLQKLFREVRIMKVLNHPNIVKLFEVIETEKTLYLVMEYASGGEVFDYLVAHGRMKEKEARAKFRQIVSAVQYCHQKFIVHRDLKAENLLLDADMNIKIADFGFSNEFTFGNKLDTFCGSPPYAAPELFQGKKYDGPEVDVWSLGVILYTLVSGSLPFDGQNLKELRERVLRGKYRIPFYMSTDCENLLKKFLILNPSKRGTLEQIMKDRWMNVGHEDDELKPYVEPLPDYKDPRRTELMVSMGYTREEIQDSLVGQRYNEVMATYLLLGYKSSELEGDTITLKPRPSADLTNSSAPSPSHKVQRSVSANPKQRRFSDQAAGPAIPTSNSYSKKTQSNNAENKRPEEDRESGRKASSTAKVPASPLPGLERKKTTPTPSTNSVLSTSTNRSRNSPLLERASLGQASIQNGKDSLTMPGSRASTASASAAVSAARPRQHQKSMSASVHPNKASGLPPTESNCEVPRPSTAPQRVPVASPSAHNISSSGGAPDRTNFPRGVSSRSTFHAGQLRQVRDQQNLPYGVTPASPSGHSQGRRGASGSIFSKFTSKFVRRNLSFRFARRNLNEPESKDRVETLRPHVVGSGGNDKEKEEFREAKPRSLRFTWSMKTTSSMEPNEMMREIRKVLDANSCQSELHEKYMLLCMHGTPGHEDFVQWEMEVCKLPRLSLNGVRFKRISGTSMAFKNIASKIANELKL
Proto-oncogene tyrosine-protein kinase Src, sequence (P12931 2-536 limits assumed): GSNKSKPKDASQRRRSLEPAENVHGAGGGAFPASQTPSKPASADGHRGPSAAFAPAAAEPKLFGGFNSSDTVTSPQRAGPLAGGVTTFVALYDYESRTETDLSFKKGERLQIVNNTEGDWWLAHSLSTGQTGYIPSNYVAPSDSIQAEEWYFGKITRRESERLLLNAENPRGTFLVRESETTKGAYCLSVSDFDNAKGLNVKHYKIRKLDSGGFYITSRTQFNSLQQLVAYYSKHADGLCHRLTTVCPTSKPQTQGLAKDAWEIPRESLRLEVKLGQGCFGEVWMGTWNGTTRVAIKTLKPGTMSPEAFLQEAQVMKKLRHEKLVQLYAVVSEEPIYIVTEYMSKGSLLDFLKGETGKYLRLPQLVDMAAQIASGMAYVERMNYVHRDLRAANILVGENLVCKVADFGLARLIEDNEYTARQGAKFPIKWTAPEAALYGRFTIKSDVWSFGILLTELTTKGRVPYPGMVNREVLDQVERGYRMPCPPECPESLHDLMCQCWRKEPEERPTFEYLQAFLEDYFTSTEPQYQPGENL
Cyclin-dependent kinase 17 (Homo sapiens), sequence (Q00537 whole entry, looked up): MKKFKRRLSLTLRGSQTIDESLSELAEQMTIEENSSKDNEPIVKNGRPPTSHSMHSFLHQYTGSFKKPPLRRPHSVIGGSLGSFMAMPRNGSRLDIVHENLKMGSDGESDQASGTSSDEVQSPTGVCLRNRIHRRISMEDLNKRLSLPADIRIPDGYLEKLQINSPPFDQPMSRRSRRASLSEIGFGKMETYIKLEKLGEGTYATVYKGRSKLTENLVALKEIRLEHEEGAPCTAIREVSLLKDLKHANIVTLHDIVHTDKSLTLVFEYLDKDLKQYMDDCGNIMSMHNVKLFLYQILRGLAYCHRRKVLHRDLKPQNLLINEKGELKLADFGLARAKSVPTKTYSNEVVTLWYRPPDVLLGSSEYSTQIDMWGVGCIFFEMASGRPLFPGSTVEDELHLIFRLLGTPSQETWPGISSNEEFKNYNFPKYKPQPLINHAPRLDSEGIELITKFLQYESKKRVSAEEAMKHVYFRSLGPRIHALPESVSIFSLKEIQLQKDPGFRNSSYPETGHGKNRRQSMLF
Serine/threonine-protein kinase 24 (Homo sapiens), sequence (Q9Y6E0 whole entry, looked up): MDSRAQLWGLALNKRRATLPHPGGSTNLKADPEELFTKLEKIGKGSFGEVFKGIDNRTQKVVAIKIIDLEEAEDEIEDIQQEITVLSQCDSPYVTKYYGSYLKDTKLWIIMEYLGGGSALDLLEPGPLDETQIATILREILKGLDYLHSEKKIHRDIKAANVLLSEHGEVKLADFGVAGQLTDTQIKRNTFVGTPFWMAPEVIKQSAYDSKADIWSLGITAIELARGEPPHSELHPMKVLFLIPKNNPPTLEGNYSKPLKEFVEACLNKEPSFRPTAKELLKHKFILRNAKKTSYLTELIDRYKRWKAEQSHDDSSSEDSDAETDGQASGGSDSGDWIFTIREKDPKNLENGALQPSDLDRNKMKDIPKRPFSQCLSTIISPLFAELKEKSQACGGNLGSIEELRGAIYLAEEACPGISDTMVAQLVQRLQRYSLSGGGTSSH
Tyrosine-protein kinase ABL2, sequence (P42684 whole entry): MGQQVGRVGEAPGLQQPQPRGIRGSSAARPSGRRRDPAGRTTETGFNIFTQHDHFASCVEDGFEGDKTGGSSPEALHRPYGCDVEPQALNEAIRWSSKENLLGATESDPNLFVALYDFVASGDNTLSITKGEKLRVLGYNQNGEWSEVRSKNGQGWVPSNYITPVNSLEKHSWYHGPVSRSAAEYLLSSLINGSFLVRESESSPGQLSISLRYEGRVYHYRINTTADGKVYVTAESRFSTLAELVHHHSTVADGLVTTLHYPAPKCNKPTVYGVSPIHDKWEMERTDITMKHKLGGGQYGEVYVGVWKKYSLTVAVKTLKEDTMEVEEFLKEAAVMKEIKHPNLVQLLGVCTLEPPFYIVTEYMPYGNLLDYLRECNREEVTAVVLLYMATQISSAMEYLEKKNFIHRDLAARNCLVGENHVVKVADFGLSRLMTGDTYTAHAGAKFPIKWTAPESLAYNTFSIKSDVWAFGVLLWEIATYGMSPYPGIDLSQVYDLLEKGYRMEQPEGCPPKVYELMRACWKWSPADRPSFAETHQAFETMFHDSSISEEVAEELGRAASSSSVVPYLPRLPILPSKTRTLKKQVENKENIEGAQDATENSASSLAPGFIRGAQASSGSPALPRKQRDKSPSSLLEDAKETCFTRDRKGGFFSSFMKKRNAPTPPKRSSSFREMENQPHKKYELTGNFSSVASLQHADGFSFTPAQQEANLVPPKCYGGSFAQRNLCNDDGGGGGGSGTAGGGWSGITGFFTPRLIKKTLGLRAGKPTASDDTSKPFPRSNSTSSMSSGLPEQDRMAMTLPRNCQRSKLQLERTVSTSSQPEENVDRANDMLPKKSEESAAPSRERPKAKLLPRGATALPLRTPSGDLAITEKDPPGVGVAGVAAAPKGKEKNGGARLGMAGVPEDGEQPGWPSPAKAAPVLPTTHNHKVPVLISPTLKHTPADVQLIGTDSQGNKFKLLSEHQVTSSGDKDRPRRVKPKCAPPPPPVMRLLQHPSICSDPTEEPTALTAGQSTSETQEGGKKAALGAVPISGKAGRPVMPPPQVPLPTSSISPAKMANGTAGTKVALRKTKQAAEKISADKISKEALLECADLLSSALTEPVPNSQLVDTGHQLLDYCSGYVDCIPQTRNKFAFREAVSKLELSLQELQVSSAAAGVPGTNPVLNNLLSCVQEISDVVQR

C=CC(=O)Nc1ccc(C(=O)Nc2[nH]nc3c2CN(C(=O)N[C@H](CN(C)C)c2ccccc2)C3(C)C)cc1 was tested, and the % of engagement [1] was -12.9%, the % of engagement [2] was 41.8% and the % of engagement [3] was 9.3%.
CC[C@@H]1[C@H](F)C(=O)N[C@@H]1COc1nccc2cc(C(N)=O)c(OC)cc12 [ZIMLOVISERTIB] was tested, and the % of inhibition [4] was -5.4%, the % of inhibition [5] was 0% and the % of inhibition [6] was 14.4%.
With CCC(=O)N1CCN(c2ccc(-n3c(=O)ccc4cnc5ccc(-c6cnc7ccccc7c6)cc5c43)cc2C(F)(F)F)CC1 the % of control [7] was 99%.
O[C@H]1CC[C@H](Nc2ncc3nc(Nc4c(F)cc(F)cc4F)n([C@H]4CCOC4)c3n2)CC1 was tested, and the % of control [8] was 0%.
Cn1cc(-n2cnc3c(NCc4nc5cc(Cl)c(Cl)cc5[nH]4)nc(N4CCOCC4)nc32)cn1 showed a % of inhibition [9] of -32.2%.
